Patent publication US20030232994A1, “Bicyclic thiophene derivatives and combinatorial libraries thereof” (priority 2001, published 2003)

Test system: Streptococcus pyogenes (ATCC# 97-03 14289)
Assay: Anti-microbial screen (growth inhibition, OD 570 nm)
Type: cell-based
Conditions: growth in Todd Hewitt Broth, plates read at 570 nm at 0 time and 4 hours, color corrected
Method: Streptococcus pyogenes (ATCC# 97-03 14289) was grown in Todd Hewitt Broth (THB) (Difco Laboratories #0492-17-6) overnight until reaching an optical density of (OD=0.636 @ 570 nm) by reading 0.1 ml in a 96 well microtiter plate in a Molecular Devices Thermomax. This preparation was kept frozen as stocks in 30% v/v glycerol in 1.5 ml aliquots at −70^mC. until use. Prior to experiments, […] aliquots were thawed and diluted into 50 ml 2×THB. 60 ul of this dilution was added to 92 wells of microtiter plate. To three wells THB (200 ul) was added to serve as a blank and a sterility control. Test compounds in DMSO and appropriate concentrations of DMSO were added to Growth/Solvent Controls at 0 time. Plates were read at 0 time at 570 nm in the Molecular Devices plate reader to obtain compounds correction factors for insoluble or colored compounds. Plates were read again at 4 hours.
Percent inhibition is calculated with the following formulae: [drawing 4]
Color correct=O.D. 0 hr−Blank 0 hr)−(Solvent Control 0 hr−Blank 0 hr)
% Inhibition=100−O.D. test compound 4 hr−Blank 4 hr−color correct O.D. growth/solvent control 4 hr−Blank 4 hr

SMILES	% Inhibition [%]
CC(=O)Nc1cccc(C(=O)N2CCc3c(sc(NC(=O)c4ccc(C(C)(C)C)cc4)c3C(=O)O)C2)c1	92.01
Cc1ccc(C)c(CC(=O)N2CCc3c(sc(NC(=O)c4ccc5ccccc5c4)c3C(=O)O)C2)c1	67.34
O=C(O)c1c(NC(=O)C2CCCCC2)sc2c1CCN(C(=O)CCc1ccc(F)c(F)c1)C2	66.79
O=C(Nc1sc2c(c1C(=O)O)CCN(C(=O)CCc1ccc(F)c(F)c1)C2)c1ccccc1	74.96
O=C(Nc1sc2c(c1C(=O)O)CCN(C(=O)c1ccsc1)C2)c1ccccc1	93.59
Cn1cc(C(=O)N2CCc3c(sc(NC(=O)c4ccccc4)c3C(=O)O)C2)c2ccccc21	87.54
O=C(CCC1CCCC1)Nc1sc2c(c1C(=O)O)CCN(C(=O)c1ccc(Cl)cc1)C2	66.09
O=C(Nc1sc2c(c1C(=O)O)CCN(C(=O)c1ccc(Cl)cc1)C2)c1ccccc1Cl	72.75
CCc1ccc(C(=O)Nc2sc3c(c2C(=O)O)CCN(C(=O)c2ccc(Cl)cc2OC)C3)cc1	62.84
CCCc1ccc(C(=O)Nc2sc3c(c2C(=O)O)CCN(C(=O)c2ccc(Cl)cc2)C3)cc1	64.18
CSc1ccccc1C(=O)N1CCc2c(sc(NC(=O)c3ccc(Cl)cc3)c2C(=O)O)C1	71.86
O=C(Nc1sc2c(c1C(=O)O)CCN(C(=O)/C=C/c1ccc(Cl)cc1)C2)c1ccccc1Cl	68.58
COc1cccc(C(=O)N2CCc3c(sc(NC(=O)C4CCCCC4)c3C(=O)O)C2)c1OC	61.06
CSc1ncccc1C(=O)N1CCc2c(sc(NC(=O)c3ccccc3Cl)c2C(=O)O)C1	60.53
O=C(Nc1sc2c(c1C(=O)O)CCN(C(=O)c1ccccc1Cl)C2)c1ccco1	60.48
COc1cccc2cc(C(=O)N3CCc4c(sc(NC(=O)c5ccccc5)c4C(=O)O)C3)oc12	76.35
O=C(Nc1sc2c(c1C(=O)O)CCN(C(=O)CC1CCCC1)C2)c1ccco1	65.78
Cc1ccc(C(=O)N2CCc3c(sc(NC(=O)CC(C)CC(C)(C)C)c3C(=O)O)C2)c(C)c1 (stereo not shown)	81.9
CC(=O)Nc1cccc(C(=O)N2CCc3c(sc(NC(=O)c4ccccc4)c3C(=O)O)C2)c1	96.85
O=C(Nc1sc2c(c1C(=O)O)CCN(C(=O)c1ccccc1Cl)C2)c1ccc(Cl)cc1	62.91
Cc1c(F)cccc1C(=O)N1CCc2c(sc(NC(=O)C3CCCCC3)c2C(=O)O)C1	63.92

SMILES	% Inhibition [%]
CC(=O)Nc1cccc(C(=O)N2CCc3c(sc(NC(=O)c4ccccc4Cl)c3C(=O)O)C2)c1	72.75
CC(C)(C)c1ccc(C(=O)Nc2sc3c(c2C(=O)O)CCN(C(=O)C2CCC2)C3)cc1	98.89
O=C(Nc1sc2c(c1C(=O)O)CCN(C(=O)CC1CCCC1)C2)c1ccc(Cl)cc1	82.59
COc1ccc(OC)c(C(=O)N2CCc3c(sc(NC(=O)c4ccc5ccccc5c4)c3C(=O)O)C2)c1	86.36
CCCc1ccc(C(=O)Nc2sc3c(c2C(=O)O)CCN(C(=O)CCc2ccc(F)c(F)c2)C3)cc1	89.36
CCC(C(=O)Nc1sc2c(c1C(=O)O)CCN(C(=O)c1cccc3ccccc13)C2)c1ccccc1 (stereo not shown)	62.49
CSc1ccccc1C(=O)N1CCc2c(sc(NC(=O)CC(C)CC(C)(C)C)c2C(=O)O)C1 (stereo not shown)	95.62
CSc1ccccc1C(=O)N1CCc2c(sc(NC(=O)c3ccccc3)c2C(=O)O)C1	79.15
Cc1ccc(C(=O)N2CCc3c(sc(NC(=O)c4ccccc4Cl)c3C(=O)O)C2)cn1	69.18
O=C(Nc1sc2c(c1C(=O)O)CCN(C(=O)C1CCC1)C2)c1ccc2ccccc2c1	59.86
COc1cc(Cl)ccc1C(=O)N1CCc2c(sc(NC(=O)c3ccccc3)c2C(=O)O)C1	81.48
CC(CC(=O)Nc1sc2c(c1C(=O)O)CCN(C(=O)c1ccc(Cl)cc1)C2)CC(C)(C)C (stereo not shown)	63.48
CC(C)(C)c1ccc(C(=O)Nc2sc3c(c2C(=O)O)CCN(C(=O)c2ccc(C(F)(F)F)cc2)C3)cc1	59.57
CSc1ccccc1C(=O)N1CCc2c(sc(NC(=O)c3ccccc3Cl)c2C(=O)O)C1	67.09
CCCc1ccc(C(=O)Nc2sc3c(c2C(=O)O)CCN(C(=O)c2cccnc2OCC)C3)cc1	92.34
CCCSc1ncccc1C(=O)N1CCc2c(sc(NC(=O)c3ccc(C(C)(C)C)cc3)c2C(=O)O)C1	83.49
O=C(Nc1sc2c(c1C(=O)O)CCN(C(=O)C1CCCCC1)C2)c1ccc(Cl)cc1	72.46
CCC(C(=O)Nc1sc2c(c1C(=O)O)CCN(C(=O)Cc1cc(C)ccc1C)C2)c1ccccc1 (stereo not shown)	80.75
O=C(Nc1sc2c(c1C(=O)O)CCN(C(=O)c1ccc(C(F)(F)F)cc1)C2)c1c(F)cccc1F	59.67
COc1ccccc1C(=O)Nc1sc2c(c1C(=O)O)CCN(C(=O)c1cccc(F)c1C)C2	63.41
COc1ccc(OC)c(C(=O)N2CCc3c(sc(NC(=O)CC(C)CC(C)(C)C)c3C(=O)O)C2)c1 (stereo not shown)	68.17

SMILES	% Inhibition [%]
O=C(Nc1sc2c(c1C(=O)O)CCN(C(=O)/C=C/c1ccc(Cl)cc1)C2)c1ccccc1	93.13
CCCSc1ncccc1C(=O)N1CCc2c(sc(NC(=O)c3ccc4ccccc4c3)c2C(=O)O)C1	67.03
O=C(Nc1sc2c(c1C(=O)O)CCN(C(=O)c1cc3ccccc3s1)C2)c1ccccc1	67.5
CCc1ccc(C(=O)Nc2sc3c(c2C(=O)O)CCN(C(=O)c2cc(OC)ccc2OC)C3)cc1	80.21
COc1ccc(OC)c(C(=O)N2CCc3c(sc(NC(=O)c4ccc(Cl)cc4)c3C(=O)O)C2)c1	70.67
CCCc1ccc(C(=O)Nc2sc3c(c2C(=O)O)CCN(C(=O)C2CCC2)C3)cc1	95.65
Cc1ccccc1C(=O)N1CCc2c(sc(NC(=O)c3ccc4ccccc4c3)c2C(=O)O)C1	78.88
COc1cccc(C(=O)N2CCc3c(sc(NC(=O)c4ccc5ccccc5c4)c3C(=O)O)C2)c1OC	64.54
O=C(CCC1CCCC1)Nc1sc2c(c1C(=O)O)CCN(C(=O)C1CCCCC1)C2	65.37
CC(C)C(=O)N1CCc2c(sc(NC(=O)c3ccc(C(C)(C)C)cc3)c2C(=O)O)C1	77.26
O=C(Nc1sc2c(c1C(=O)O)CCN(C(=O)c1cccc(Cl)c1)C2)c1ccccc1	94.99
Cc1ccc(C(=O)N2CCc3c(sc(NC(=O)c4ccc(Cl)cc4)c3C(=O)O)C2)cn1	64.41
O=C(Nc1sc2c(c1C(=O)O)CCN(C(=O)c1ccccc1C(F)(F)F)C2)c1ccc(Cl)cc1	67.09
O=C(Nc1sc2c(c1C(=O)O)CCN(C(=O)c1ccco1)C2)c1ccccc1	96.39
O=C(Nc1sc2c(c1C(=O)O)CCN(C(=O)c1ccc(F)cc1F)C2)c1ccccc1Cl	64.7
CCc1ccc(C(=O)Nc2sc3c(c2C(=O)O)CCN(C(=O)c2ccc(C(F)(F)F)cc2)C3)cc1	63.17
CC(C)(C)c1ccc(C(=O)Nc2sc3c(c2C(=O)O)CCN(C(=O)c2ccccc2Cl)C3)cc1	89.72
CCC(C(=O)Nc1sc2c(c1C(=O)O)CCN(C(=O)c1ccccc1SC)C2)c1ccccc1 (stereo not shown)	68.58
CCc1ccc(C(=O)Nc2sc3c(c2C(=O)O)CCN(C(=O)c2ccccc2Cl)C3)cc1	77.92
